Results published in patent US9878996B2, “2-imidazolyl-pyrimidine scaffolds as potent and selective inhibitors of neuronal nitric oxide synthase” (Northwestern University, priority 2014, dated 2018).
“Also recorded” adds a separate entry of the source. Where two headings read alike, the source gives them in different places.

How the values were obtained:
rat nNOS = rat nNOS (Rattus norvegicus (Rat), UniProt P29476)
eNOS [1] = settings: for Ratios n/e: selectivity nNOS over eNOS
eNOS [2] = target: eNOS (Bos taurus, UniProt P29473); settings: read-out: Ki eNOS; Ki from IC50 by Cheng-Prusoff
eNOS (Bos taurus, UniProt P29473), sequence (P29473 2-1205 limits assumed): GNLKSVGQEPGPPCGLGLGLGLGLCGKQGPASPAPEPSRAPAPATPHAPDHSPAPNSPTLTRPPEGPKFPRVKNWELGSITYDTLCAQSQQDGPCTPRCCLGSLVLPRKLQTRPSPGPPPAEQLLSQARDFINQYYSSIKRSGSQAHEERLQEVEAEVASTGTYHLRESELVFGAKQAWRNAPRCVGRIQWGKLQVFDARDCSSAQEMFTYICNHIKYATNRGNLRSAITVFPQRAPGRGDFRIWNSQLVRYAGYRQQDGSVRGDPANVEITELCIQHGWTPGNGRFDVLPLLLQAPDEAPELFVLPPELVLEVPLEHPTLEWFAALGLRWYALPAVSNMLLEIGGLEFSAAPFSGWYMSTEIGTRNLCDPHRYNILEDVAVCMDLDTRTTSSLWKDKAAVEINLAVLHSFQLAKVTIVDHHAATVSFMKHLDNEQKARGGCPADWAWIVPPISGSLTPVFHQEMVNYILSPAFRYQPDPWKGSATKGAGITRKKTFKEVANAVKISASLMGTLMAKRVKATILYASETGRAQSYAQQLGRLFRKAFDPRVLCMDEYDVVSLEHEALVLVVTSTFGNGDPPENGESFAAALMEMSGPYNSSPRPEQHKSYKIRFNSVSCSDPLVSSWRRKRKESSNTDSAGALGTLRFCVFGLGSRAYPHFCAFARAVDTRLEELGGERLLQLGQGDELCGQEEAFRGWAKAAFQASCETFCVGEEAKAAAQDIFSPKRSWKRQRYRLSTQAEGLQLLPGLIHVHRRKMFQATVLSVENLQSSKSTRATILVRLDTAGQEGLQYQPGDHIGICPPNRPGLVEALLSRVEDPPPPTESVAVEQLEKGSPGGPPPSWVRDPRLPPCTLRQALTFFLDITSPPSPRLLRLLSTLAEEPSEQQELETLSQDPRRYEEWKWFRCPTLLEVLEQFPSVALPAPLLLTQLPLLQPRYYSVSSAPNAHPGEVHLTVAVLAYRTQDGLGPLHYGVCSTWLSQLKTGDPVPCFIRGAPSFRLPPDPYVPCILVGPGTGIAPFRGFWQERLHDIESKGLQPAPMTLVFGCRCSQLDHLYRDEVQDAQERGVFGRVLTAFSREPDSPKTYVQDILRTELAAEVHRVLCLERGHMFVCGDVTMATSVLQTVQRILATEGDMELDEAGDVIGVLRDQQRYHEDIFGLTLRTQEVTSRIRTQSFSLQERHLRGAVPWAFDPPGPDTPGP

iNOS [3] = target: T1, iNOS (Mus musculus (Mouse), UniProt P29477); settings: for Ki: read-out: Ki iNOS, Ki from IC50 by Cheng-Prusoff; for Ratios n/i: selectivity nNOS over iNOS
caco-2 = assay: Caco-2 assay; format: in vitro ADME
[4] = test system: panel of other CNS targets, including the muscarinic receptors; assay: Primary binding assays on a panel of other CNS targets (NIMH PDSP); settings: 10 μM concentration
human nNOS = human nNOS (Homo sapiens (Human), UniProt P29475); settings: for Ki: read-out: Ki hnNOS, Ki from IC50 by Cheng-Prusoff
iNOS [5] = target: T1, iNOS; assay: biochemical
CYP3A4 = CYP3A4 (Homo sapiens (Human), UniProt P08684); assay: CYP3A4 inhibition; format: in vitro ADME
CYP3A4, sequence (P08684 whole entry, species assumed): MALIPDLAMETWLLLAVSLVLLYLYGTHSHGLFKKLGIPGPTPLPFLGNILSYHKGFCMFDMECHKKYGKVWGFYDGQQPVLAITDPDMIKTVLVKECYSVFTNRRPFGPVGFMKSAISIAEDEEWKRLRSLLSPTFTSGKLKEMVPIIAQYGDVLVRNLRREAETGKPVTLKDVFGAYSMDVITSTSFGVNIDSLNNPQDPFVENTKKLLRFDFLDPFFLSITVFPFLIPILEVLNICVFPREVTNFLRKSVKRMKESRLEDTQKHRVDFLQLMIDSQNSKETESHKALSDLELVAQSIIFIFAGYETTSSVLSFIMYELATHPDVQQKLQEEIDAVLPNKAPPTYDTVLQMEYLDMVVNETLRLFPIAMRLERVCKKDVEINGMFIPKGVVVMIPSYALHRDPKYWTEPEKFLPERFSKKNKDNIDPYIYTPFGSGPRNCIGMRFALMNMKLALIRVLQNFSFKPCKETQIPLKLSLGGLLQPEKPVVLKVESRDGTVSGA

[6] = read-out: Ki nNOS, rat nNOS, Ki from IC50 by Cheng-Prusoff
[7] = rat nNOS, Ki from IC50 by Cheng-Prusoff

Row | SMILES | Ki (rat nNOS; [6]) | Ratios n/e (eNOS [1]) | Ki (eNOS [2]) | Ki (iNOS [3]) | Ratios n/i (iNOS [3]) | Ki (human nNOS) | also measured
1 | Fc1cccc(CCN2CCN(c3ccnc(-n4ccnc4)n3)CC2)c1 [Compound 2] | 4700 nM | – | – | – | – | – | –
2 | Fc1cccc(CCNCCNc2ccnc(-n3ccnc3)n2)c1 [Compound 3] | 370 nM | 109 | 40 µM | 6400 nM | 17 | – | Ki nNOS (rat nNOS; [7]): moderate submicromolar; selectivity over eNOS (eNOS [1]): > 100 fold; selectivity over iNOS (iNOS [3]): 17 fold
3 | Fc1cccc(CCNCc2ccnc(-n3ccnc3)n2)c1 [Compound 4] | 8700 nM | – | – | – | – | – | –
4 | Fc1cccc(CCCNCc2ccnc(-n3ccnc3)n2)c1 [Compound 5] | 2700 nM | 33 | 90 µM | 10500 nM | 4 | – | –
5 | Fc1cccc(CCNCCc2ccnc(-n3ccnc3)n2)c1 [Compound 6] | – | – | 4 µM | 1100 nM | – | – | –
6 | Fc1cccc(CCCNCCc2ccnc(-n3ccnc3)n2)c1 [Compound 7] | 19 nM | – | 4.95 µM | 770 nM | – | 193 nM | membrane / cellular permeability (caco-2): good cellular permeability; also recorded: has membrane permeability; inhibition of other CNS targets [4]: minimal inhibition for most of them
7 | Clc1cccc(CCCNCCc2ccnc(-n3ccnc3)n2)c1 [Compound 25] | 32 nM | 253 | 8.1 µM | – | 28 | 125 nM | Ki (iNOS [5]): 2 µM
8 | Fc1cccc(C2CC2CNCCc2ccnc(-n3ccnc3)n2)c1 (centres unmarked) [Compound 26] | 56 nM | 71 | 4 µM | 1900 nM | 34 | 359 nM | –
9 | Fc1cccc(CC2CC2NCCc2ccnc(-n3ccnc3)n2)c1 (centres unmarked) [Compound 27] | 40 nM | – | 14.5 µM | – | – | 358 nM | –
10 | N#Cc1cccc(CNCCc2ccnc(-n3ccnc3)n2)c1 [Compound 28] | 183 nM | – | 10.5 µM | 3400 nM | – | 138 nM | –
11 | c1cncc(CCCNCCc2ccnc(-n3ccnc3)n2)c1 [Compound 29] | 54 nM | – | 10.9 µM | – | – | 125 nM | Ki nNOS (rat nNOS; [7]): good potency; Ki hnNOS (human nNOS; Ki from IC50 by Cheng-Prusoff): good potency
12 | Fc1cccc(CCCNCCc2ccnc(-n3ccnn3)n2)c1 [Compound 30] | 60000 nM | – | – | – | – | – | –
13 | Cc1cn(-c2nccc(CCNCCCc3cccc(F)c3)n2)cn1 [Compound 31] | 667 nM | 256 | – | – | 430 | 4490 nM | IC50 (CYP3A4): 15 µM; Ki (rat nNOS; read-out: potency for nNOS): 667 nM; Ki (iNOS [5]): 287 µM
14 | Fc1cccc(CCNCCc2cncc(-n3ccnc3)c2)c1 [Compound 48] | 5500 nM | – | – | – | – | – | –
